Test results reported in patent publication US20180064654A1, “Sheet Packs And Methods For Treating Skin” (ELC Management LLC, priority 2015, published 2018).

Tests used:
[1] = system: per1 gene expression in normal human epidermal keratinocytes (NHEK); test: per1 promoter luciferase reporter assay in NHEK; assay type: cell-based
Experimental: Perl gene expression in normal human epidermal keratinocytes (NHEK) donors was tested in control cells and cells exposed to ozone using the reporter assay. NHEK were plated at a concentration of 3×10^4 in a black walled, 96 well microtiter plate for 3 hours in EpiLife media. The cells were then transfected in supplement free media with a plasmid that contained luciferase as the reporter gene ligated upstream to a per1 promoter element. In addition, transfection was facilitated by addition of Plus and Lipfectamine reagents (Invitrogen, Carlsbad, Calif.). Transfection in supplement free media was carried out for an additional four hours. This “starves” the cells which in turn causes them to be synchronized in their circadian rhythms. After transfection, full media neat and containing ozone was added and incubated for 16 hours. Then a luciferase reagent, Glo-Bright (Promega Corporation, Madison, Wis.) was added and luminescence measures in an Lmax luminometer (Molecular Devices, Sunnyvale, Calif.).
The test was performed again, and in addition, a peptide with per1 gene activity was tested.
In both tests, NHEK were treated at the start of the test (0 hours) so that they were all synchronized with respect to their circadian rhythm, and expressing per1 at the same time. […]

[2] = system: PER1 gene expression in skin cells; conditions: "has been shown", no test described; cited from earlier work
[3] = system: PER1 gene expression in skin cells; test: PER1 gene expression in skin cells; assay type: cell-based

With `O=[O+][O-]` [ozone] the per1 gene expression ([1]; 24 hours, single treatment, compared with untreated cells (FIG. 6)) was “lesser, and about equivalent, expression of PER1” and the per1 activity ([1]; ozone treated NHEK at 0, 6 and 12 hours, vs untreated cells (FIG. 5)) was “decrease in per1 activity”.

In the case of `O=C(/C=C/c1ccc(O)c(O)c1)O[C@@H](C(=O)O)[C@@H](OC(=O)/C=C/c1ccc(O)c(O)c1)C(=O)O` [cichoric acid], the “activation of PER / PER1” value [2] is listed as “suitable activator of PER and PER1”.

With `O=C(/C=C/c1ccc(O)c(O)c1)O[C@@H](C(=O)O)[C@@H](O)C(=O)O` [caftaric acid] the PER1 gene expression [3] was “does not increase PER1 gene expression”.
